“And” between values parts separate entries of the source, which are not always exact repeats. Equal entries are not always repeated. Where two headings read alike, the source gives them in different places.
Columns and labels:
[1] = target: T1, recombinant full length human kinase MNK2 (Homo sapiens, UniProt Q9HBH9); assay: MNK2 radiometric kinase activity assay; format: biochemical; conditions: radiometric activity assay; read-out: MNK2
T1 construct: the recombinant full length human kinase MNK2; made in house; host or cells: insect cells

[2] = Plasma and brain concentrations, brain to plasma ratio in SD rats 2 hr after single 10 mg/kg PO (Example 4); format: in vivo; conditions: 2 hr post single PO dose 10 mg/kg; for concentration at 2 hr: Sprague-Dawley, po
Procedure: A brain to plasma ratio of 0.096 (BP=0.096) in SD rats is observed at 2 hr following a single 10 mg/kg dose of 4ET-03-053.

[3] = PK study in male Sprague-Dawley rats, IV 0.5 mg/kg and PO 1 mg/kg in 10% DMA/PG (Example 5); format: in vivo; conditions: for MRT inf: MRTinf
Procedure: Example 5: PK study of 4ET-03-053 in male Sprague-Dawley rats with IV (0.5 mg kg; 10% DMI 15% EtOH 35% PG 40% NS) and PO (1 mg kg; 10% DMA PG) dosing
In male Sprague-Dawley rats, following IV administration with 0.5 mg/kg 4ET-03-053, plasma concentrations declined in a multiphasic manner with an initial concentration (Co) of 1.24 ug/mL and a last measurable concentration (Clast) of 33.2 ng/mL at 24 h post dose.
(§1) Table 15 provides plasma and brain concentrations at 2 hr after a single P0 dose of 1 mg/kg.

[4] = Plasma and brain concentrations, brain:plasma ratio in rats 2 hr after single PO 1 mg/kg (Example 5); format: in vivo; conditions: for concentration at 2 hr: po
Procedure: as §1

[5] = Plasma and brain concentrations, brain:plasma ratio 24 hr after last of five daily 1 mg/kg PO doses (Example 6); format: in vivo, rats; conditions: for concentration at 24 h / Kp at 24 h: rat; for concentration at 24 h: oral, 1 mg/kg
Description: Table 18 provides plasma and brain concentrations of 4ET-03-0053 at 24 hr after the last dose of five daily P0 doses.

[6] = Plasma and brain concentrations, brain to plasma ratio 24 hr after last of five 25 mg/kg PO doses (Example 8); format: in vivo; conditions: rats, 24 hr after the last of five 25 mg/kg PO doses; for concentration at 24 hr / concentration at 24 h: Sprague-Dawley, rat, oral, 25 mg/kg; for concentration at 24 h: male
Description: Table 24 provides plasma and brain concentrations at 24 hr after the last dose of five daily PO doses of 4ET-03-053.

[7] = tested on: eIF4E phosphorylation in hDRGs; assay: p-eIF4E immunofluorescence in cultured human dorsal root ganglion cells (hDRGs); format: cell-based; conditions: immunofluorescence
Procedure: For all human DRG experiments, DRGs were recovered from organ donors at the Southwest Transplant Alliance under an IRB approved protocol at University of Texas at Dallas. DRGs were recovered within 3 hrs of cross clamp. DRGs were recovered and taken back to the University of Texas lab where they were cultured using the protocol described previously. Cultures were grown on glass coverslips for microscopy. Coverslips were coated with poly-D-lysine and laminin to improve neuronal adherence to the coverslips. Cultures of human DRG neurons were grown for 4-7 days prior to treatment with OSM. OSM treatment was done in culture media for a period of 30 min. Cells were stained with antibodies using the same protocol as described above for HEK293 cells. Imaging was done on an Olympus FV1200 microscope and image analysis was done with CellSens software. Statistical analysis was done with Graphpad Prism V8.
Human DRG recovery and other experimental protocols were the same as described herein.

[8] = individual animals (n = 3), 10 mg/kg
[9] = male Sprague-Dawley rats, IV 0.5 mg/kg, 10% DMI:15% EtOH:35% PG:40% NS, individual animals, 0.5 mg/kg
[10] = male, Sprague-Dawley, rat, in vivo, iv, 0.5 mg/kg
[11] = male, Sprague-Dawley, rat, in vivo, po, 1 mg/kg

T1 sequence (Q9HBH9 whole entry): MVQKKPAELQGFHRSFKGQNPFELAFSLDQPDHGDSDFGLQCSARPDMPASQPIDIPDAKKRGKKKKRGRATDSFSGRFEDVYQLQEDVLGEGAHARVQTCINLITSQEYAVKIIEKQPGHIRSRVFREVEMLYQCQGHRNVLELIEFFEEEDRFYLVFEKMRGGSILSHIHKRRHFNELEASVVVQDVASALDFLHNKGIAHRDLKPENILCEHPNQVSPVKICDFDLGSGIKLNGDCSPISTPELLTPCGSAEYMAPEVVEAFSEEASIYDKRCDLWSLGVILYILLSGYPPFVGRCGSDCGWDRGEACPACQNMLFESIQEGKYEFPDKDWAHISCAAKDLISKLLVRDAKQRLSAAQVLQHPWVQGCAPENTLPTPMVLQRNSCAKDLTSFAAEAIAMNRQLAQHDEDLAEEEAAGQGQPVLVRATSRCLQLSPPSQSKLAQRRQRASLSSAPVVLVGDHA

With `Cc1cc(Nc2cc(N)ncn2)c(=O)n2c1C(=O)NC21CCC2(CC2)CC1` [4ET-03-053, 6″-((6-Aminopyrimidin-4-yl)amino)-8″-methyl-2″H-dispiro[cyclopropane-1,1′-cyclohexane-4′,3″-imidazo[1,5-a]pyridine]-1″,5″-dione] the IC50 [1] was 20.9 nM, the “Brain Tissue Homogenate Conc.” value [2, 8] was 406 ng/mL and 323 ng/mL and the “Plasma Conc.” value [2, 8] was 16900 ng/mL and 14400 ng/mL. It also gave a Kp at 2 h ([2]; Sprague Dawley, rat, brain/plasma, read-out: Mean Tissue/Plasma Conc. Ratio (brain to plasma ratio)) of 0.096, a concentration at 2 hr ([2]; rat, brain tissue homogenate, 10 mg/kg, individual animals (n = 3), read-out: Brain Tissue Homogenate Conc.) of 319 ng/mL and a concentration at 2 hr ([2]; rat, brain tissue homogenate, 10 mg/kg, mean, read-out: Brain Tissue Homogenate Conc., Mean) of 349 ng/mL. It also gave a concentration at 2 hr ([2]; rat, brain, 10 mg/kg, read-out: Brain Mean Tissue) of 1400 ng/g, a concentration at 2 hr ([2]; rat, plasma, 10 mg/kg, individual animals (n = 3), read-out: Plasma Conc.) of 12200 ng/mL and a concentration at 2 hr ([2]; rat, plasma, 10 mg/kg, mean, read-out: Plasma Conc., Mean) of 14500 ng/mL. The AUClast [3, 9] was 4654 ng·h/mL and 3767 ng·h/mL, the Clast [3, 9] was 36.7 ng/mL and 29.7 ng/mL and the C0 [3, 10] was 1240 ng/mL. It also gave an AUC(0-inf) ([3]; male, Sprague-Dawley, rat, in vivo, iv, 0.5 mg/kg, AUCinf) of 4080 ng·h/mL, a clearance ([3]; male, Sprague-Dawley, rat, in vivo, iv, 0.5 mg/kg, CLp) of 2.04 mL/min/kg and an MRT inf [3, 10] of 7.69 h. It also gave a Vd ([3]; male, Sprague-Dawley, rat, in vivo, iv, 0.5 mg/kg, Vss) of 0.942 L/kg, a concentration at 24 h ([3]; male, Sprague-Dawley, rat, in vivo, iv, 0.5 mg/kg, male Sprague-Dawley rats, 0.5 mg/kg IV, at 24 h, read-out: last measurable concentration (Clast)) of 33.2 ng/mL and an AUC(0-t) ([3]; male, Sprague-Dawley, rat, in vivo, iv, 0.5 mg/kg, male Sprague-Dawley rats, IV 0.5 mg/kg, 10% DMI:15% EtOH:35% PG:40% NS, individual animals, read-out: AUClast) of 4030 ng·h/mL. The concentration at 24 h ([3]; male, Sprague-Dawley, rat, in vivo, iv, 0.5 mg/kg, male Sprague-Dawley rats, IV 0.5 mg/kg, 10% DMI:15% EtOH:35% PG:40% NS, individual animals, read-out: Clast) was 33.1 ng/mL, the AUC(0-t) ([3]; male, Sprague-Dawley, rat, in vivo, iv, 0.5 mg/kg, male Sprague-Dawley rats, IV 0.5 mg/kg, 10% DMI:15% EtOH:35% PG:40% NS, mean (n = 3), read-out: AUClast) was 4150 ng·h/mL and the concentration at 24 h ([3]; male, Sprague-Dawley, rat, in vivo, iv, 0.5 mg/kg, male Sprague-Dawley rats, IV 0.5 mg/kg, 10% DMI:15% EtOH:35% PG:40% NS, mean (n = 3), read-out: Clast) was 33.2 ng/mL. For the same molecule, the Vd ([3]; male, Sprague-Dawley, rat, in vivo, iv, 0.5 mg/kg, steady-state volume of distribution (Vss)) was 0.87 L/kg, the clearance ([3]; male, Sprague-Dawley, rat, in vivo, iv, 0.5 mg/kg, systemic clearance (CLp)) was 1.87 mL/min/kg and the half-life ([3]; male, Sprague-Dawley, rat, in vivo, iv, 0.5 mg/kg, t1/2) was 7.26 h. For the same molecule, the half-life ([3]; male, Sprague-Dawley, rat, in vivo, iv, 0.5 mg/kg, terminal half-life (t1/2)) was 7.33 h, the AUC(0-inf) ([3]; male, Sprague-Dawley, rat, in vivo, iv, 0.5 mg/kg, total systemic exposure (AUCinf)) was 4500 ng·h/mL and the Tmax [3, 11] was 0.5 h. The bioavailability [3, 11] was 76.7%, the “time to peak plasma concentration” value [3, 11] was no more than 30 min and the AUC(0-inf) ([3]; male, Sprague-Dawley, rat, in vivo, po, 1 mg/kg, AUCinf) was 7020 ng·h/mL. For the same molecule, the AUC(0-t) ([3]; male, Sprague-Dawley, rat, in vivo, po, 1 mg/kg, AUClast) was 6110 ng·h/mL, the concentration at 24 hr ([3]; male, Sprague-Dawley, rat, in vivo, po, 1 mg/kg, Clast) was 74.6 ng/mL and the Cmax ([3]; male, Sprague-Dawley, rat, in vivo, po, 1 mg/kg, Cmax) was 683 ng/mL. The MRT inf [3, 11] was 10.6 h, the concentration at 24 hr ([3]; male, Sprague-Dawley, rat, in vivo, po, 1 mg/kg, last measurable concentration) was 74.6 ng/mL and the Cmax ([3]; male, Sprague-Dawley, rat, in vivo, po, 1 mg/kg, peak plasma concentration (Cmax)) was 683 ng/mL. For the same molecule, the half-life ([3]; male, Sprague-Dawley, rat, in vivo, po, 1 mg/kg, t1/2) was 9.23 h, the half-life ([3]; male, Sprague-Dawley, rat, in vivo, po, 1 mg/kg, terminal half-life (t1/2)) was 9.23 h and the AUC(0-inf) ([3]; male, Sprague-Dawley, rat, in vivo, po, 1 mg/kg, total systemic exposure (AUCinf)) was 6900 ng·h/mL. For the same molecule, the concentration at 2 hr ([4]; male, Sprague-Dawley, rat, brain homogenate, 1 mg/kg, rats, brain homogenate, 2 hr after single PO 1 mg/kg, individual animals (n = 3), read-out: Tissue Homogenate Conc.) was 9.82 ng/mL, the concentration at 2 hr ([4]; male, Sprague-Dawley, rat, brain homogenate, 1 mg/kg, rats, brain homogenate, 2 hr after single PO 1 mg/kg, mean, read-out: Tissue Homogenate Conc., Mean) was 11.8 ng/mL and the concentration at 2 hr ([4]; male, Sprague-Dawley, rat, brain, 1 mg/kg, rats, brain, 2 hr after single PO 1 mg/kg, read-out: Mean Tissue) was 47.2 ng/g. The concentration at 2 hr ([4]; male, Sprague-Dawley, rat, plasma, 1 mg/kg, rats, plasma, 2 hr after single PO 1 mg/kg, individual animals (n = 3), read-out: Plasma Conc.) was 506 ng/mL, the concentration at 2 hr ([4]; male, Sprague-Dawley, rat, plasma, 1 mg/kg, rats, plasma, 2 hr after single PO 1 mg/kg, mean, read-out: Plasma Conc., Mean) was 566 ng/mL and the Kp at 2 hr ([4]; male, Sprague-Dawley, rat, rats, brain to plasma, 2 hr after single PO 1 mg/kg, read-out: Mean Tissue/Plasma Conc. Ratio) was 0.083. For the same molecule, the Kp at 2 h ([4]; rat, brain, Sprague-Dawley rats, 2 hr after a single PO dose of 1 mg/kg) was 0.083, the “Tissue Homogenate Conc.” value ([4]; rats, brain homogenate, 2 hr after single PO 1 mg/kg, individual animals (n = 3), 1 mg/kg) was 11.4 ng/mL and 14.2 ng/mL and the “Plasma Conc.” value ([4]; rats, plasma, 2 hr after single PO 1 mg/kg, individual animals (n = 3), 1 mg/kg) was 539 ng/mL and 652 ng/mL. For the same molecule, the concentration at 24 h ([5]; male, Sprague-Dawley, brain homogenate, rats, brain homogenate, 24 hr after the last 1 mg/kg PO dose on day 5, individual animals (n = 3), read-out: Tissue Homogenate Conc.) was 7.22 ng/mL, the concentration at 24 h ([5]; male, Sprague-Dawley, brain homogenate, rats, brain homogenate, 24 hr after the last 1 mg/kg PO dose on day 5, mean, read-out: Tissue Homogenate Conc., Mean) was 6.02 ng/mL and the concentration at 24 h ([5]; male, Sprague-Dawley, brain, rats, brain, 24 hr after the last 1 mg/kg PO dose on day 5, read-out: Mean Tissue) was 24.1 ng/g. For the same molecule, the concentration at 24 h ([5]; male, Sprague-Dawley, plasma, rats, plasma, 24 hr after the last 1 mg/kg PO dose on day 5, individual animals (n = 3), read-out: Plasma Conc.) was 318 ng/mL, the concentration at 24 h ([5]; male, Sprague-Dawley, plasma, rats, plasma, 24 hr after the last 1 mg/kg PO dose on day 5, mean, read-out: Plasma Conc., Mean) was 278 ng/mL and the Kp at 24 h ([5]; male, Sprague-Dawley, rats, brain to plasma, 24 hr after the last 1 mg/kg PO dose on day 5, read-out: Mean Tissue/Plasma Conc. Ratio) was 0.086. The Kp at 24 h ([5]; brain, Sprague-Dawley rats, 24 hr after the last dose of five daily PO doses of 1 mg/kg, read-out: brain:plasma ratio) was 0.086, the “Tissue Homogenate Conc.” value ([5]; rats, brain homogenate, 24 hr after the last 1 mg/kg PO dose on day 5, individual animals (n = 3)) was 5.79 ng/mL and 5.04 ng/mL and the “Plasma Conc.” value ([5]; rats, plasma, 24 hr after the last 1 mg/kg PO dose on day 5, individual animals (n = 3)) was 291 ng/mL and 226 ng/mL. It also gave a concentration at 24 hr ([6]; brain homogenate, brain homogenate, mean, read-out: Tissue Homogenate Conc., Mean) of 122 ng/mL, a concentration at 24 hr ([6]; brain, brain, read-out: Mean Tissue) of 489 ng/g and a concentration at 24 h ([6]; brain homogenate, brain homogenate, individual animals (n = 3), read-out: Tissue Homogenate Conc.) of 104 ng/mL. The concentration at 24 h ([6]; plasma, plasma, individual animals (n = 3), read-out: Plasma Conc.) was 5340 ng/mL, the concentration at 24 h ([6]; plasma, plasma, mean, read-out: Plasma Conc., Mean) was 5890 ng/mL and the “Tissue Homogenate Conc.” value ([6]; brain homogenate, individual animals (n = 3)) was 127 ng/mL and 136 ng/mL. For the same molecule, the “Plasma Conc.” value ([6]; plasma, individual animals (n = 3)) was 6120 ng/mL and 6220 ng/mL, the “phosphorylation of eIF4E in hDRGs” value ([7]; 30 min treatment) was “reduces phosphorylation of eIF4E” and the “phosphorylation of eIF4E in hDRGs in the presence of OSM” value ([7]; in presence of OSM) was “reduces phosphorylation of eIF4E”.

From patent US20250186436A1 (4E Therapeutics, Inc., priority 2021, published 2025)
